Measurements published in patent US5770574A, “Long-chain alkylamides of amino acids and peptides with anti-proliferative and anti-inflammatory properties” (ASTA Medica Aktiengesellschaft, priority 1994, dated 1998).

Assays:
L1210 mouse leucemia = assay: inhibition of colony formation in soft agar (colony assay), L1210; format: cell-based; conditions: for Cytotoxicity in vitro EC90 L 1210: concentration giving 90% inhibition of colony formation, determined by graph, 6 days incubation; for activity against L 1210 cells (ranking in words): among the compounds of the table
Method: (§1) The effectiveness of the compounds defined in accordance with the invention was tested as to their in vitro cytotoxicity. The investigations about inhibition of colony formation in soft agar (colony assay) were carried out in conformity with the method of Hamburger and Salmon (A. W. Hamburger, S. E. Salmon, "Primary Bioassay of Human Myeloma Stem Cells", J. Clin. Invest. 60: 846-854 (1977); A. W. Hamburger and S. E. Salmon, "Primary Bioassay of Human Tumor Stem Cells", Science 197: 461-463 (1977)). The tumor cells were incubated in RPMI-1640 medium with 20% fetal calf serum and 0.3% agar in the presence of different concentrations of the test substance at 37° C., 95% relative air humidity and 5% CO2. Triple values were taken in each instance. The incubation time was 6 days for L1210 mouse leucemia and 8 days for KB human mucous-membrane carcinoma. The colonies formed (>50 cells) were subsequently counted.

[1] = tested on: KB human mucous-membrane carcinoma; assay: inhibition of colony formation in soft agar (colony assay), KB; format: cell-based; conditions: for Cytotoxicity in vitro EC90 KB: concentration giving 90% inhibition of colony formation, determined by graph, 8 days incubation; for activity against KB cells (ranking in words): among the compounds of the table
Method: as §1

[2] = tested on: small-cell bronchial carcinoma LXFS 538; assay: human tumors transplanted into the naked mouse, LXFS 538; format: in vivo; conditions: LXFS 538 xenograft, 45 mg/kg i.p. per day 1.5 and 9
Method: (§2) The compound H-LYS(LYS)-NHC18 H37.3HCL (D-21621) was tested separately on human tumors transplanted into the naked mouse. […] This tumor is resistant to all standard cytostatic agents.

[3] = tested on: ovarian carcinoma OVXF 899; assay: human tumors transplanted into the naked mouse, OVXF 899; format: in vivo; conditions: OVXF 899 xenograft, same conditions (45 mg/kg i.p. per day 1.5 and 9)
Method: as §2

CCCCCCCCCCCCCCCCCCNC(=O)C(N)CCCNC(=O)C(N)CCCN.Cl.Cl.Cl [D-20 989, H--ORN(ORN)--NHC18 H37.3HCL]
Cytotoxicity in vitro EC90 L 1210 (L1210 mouse leucemia): 3.1 mg/L
Cytotoxicity in vitro EC90 KB [1]: 1.3 mg/L

Br.Br.Br.CCCCCCCCCCCCCCCCCCNC(=O)C(N)CCCCNC(=O)C(N)CCCCN [D-20 994, H--LYS(LYS)--NHC18 H37.3HBr]
Cytotoxicity in vitro EC90 L 1210 (L1210 mouse leucemia): 3.2 mg/L
activity against KB cells (ranking in words) [1]: highest activity
Cytotoxicity in vitro EC90 KB [1]: 0.8 mg/L

CCCCCCCCCCCCCCCCCCNC(=O)C(N)CCCCNC(=O)C(N)CCCCN.Cl.Cl.Cl [D-21 621, H--LYS(LYS)--NHC18 H37.3HCl]
Cytotoxicity in vitro EC90 L 1210 (L1210 mouse leucemia): 2.2 mg/L
Cytotoxicity in vitro EC90 KB [1]: 1.4 mg/L
tumor inhibition [2]: 37 % of the control
tumor inhibition [3]: 46 % of the control

CCCCCCCCCCCCCCNC(=O)C1CSCN1 [D-21 979, H--THZ--NHC14 H29]
activity against L 1210 cells (ranking in words) (L1210 mouse leucemia): highest activity
Cytotoxicity in vitro EC90 L 1210 (L1210 mouse leucemia): 0.3 mg/L
Cytotoxicity in vitro EC90 KB [1]: 3.1 mg/L

CCCCCCCCCCCCCCCCNC(=O)C1CSCN1 [D-21 980, H--THZ--NHC16 H33]
Cytotoxicity in vitro EC90 L 1210 (L1210 mouse leucemia): 3.4 mg/L
Cytotoxicity in vitro EC90 KB [1]: 3.1 mg/L

CCCCCCCCCCCCCCCCCCNC(=O)C(CCCCN)NC(=O)C(N)CCCCN [D-22 267, H--LYS--LYS--NHC18 H37]
Cytotoxicity in vitro EC90 L 1210 (L1210 mouse leucemia): 3.1 mg/L
activity against KB cells (ranking in words) [1]: highest activity
Cytotoxicity in vitro EC90 KB [1]: 0.3 mg/L

CCCCCCCCCCCCCCCCCCNC(=O)[C@H](N)CCCCNC(=O)[C@H](N)CCCCN.Cl.Cl.Cl [D-22 628, H--D--LYS(D--LYS)--NHC18 H37.3HCL]
activity against L 1210 cells (ranking in words) (L1210 mouse leucemia): highest activity
Cytotoxicity in vitro EC90 L 1210 (L1210 mouse leucemia): 0.8 mg/L
Cytotoxicity in vitro EC90 KB [1]: 1.1 mg/L

H--LYS[(LYS)LYS]--NHC18 h37.4HBr [D-20 995]
Cytotoxicity in vitro EC90 L 1210 (L1210 mouse leucemia): > 3 mg/L
activity against KB cells (ranking in words) [1]: highest activity
Cytotoxicity in vitro EC90 KB [1]: 0.9 mg/L

H--ORN[(ORN)ORN]--NHC18 H37 4HCl [D-20 990]
Cytotoxicity in vitro EC90 L 1210 (L1210 mouse leucemia): > 10 mg/L
Cytotoxicity in vitro EC90 KB [1]: 1.7 mg/L
